Source: the NIST ThermoML archive (doi:10.1021/je050020m)

Test: xn = mol fraction of the nth substance listed
Details: Liquid, Vibrating tube method

CCCCCCCCCC [decane] + O=C=O
Details	mass density [kg/m3]
352.78 K, 12025 kPa, x2 = 0.0551	697.67
352.78 K, 13009 kPa, x2 = 0.0551	698.59
352.78 K, 14003 kPa, x2 = 0.0551	699.6
352.78 K, 15017 kPa, x2 = 0.0551	700.5
352.78 K, 16009 kPa, x2 = 0.0551	701.58
352.78 K, 17043 kPa, x2 = 0.0551	702.49
352.78 K, 18011 kPa, x2 = 0.0551	703.38
352.78 K, 18999 kPa, x2 = 0.0551	704.26
352.78 K, 19980 kPa, x2 = 0.0551	705.14
352.78 K, 21012 kPa, x2 = 0.0551	706.06
352.78 K, 22017 kPa, x2 = 0.0551	706.96
352.78 K, 23034 kPa, x2 = 0.0551	707.84
352.78 K, 24044 kPa, x2 = 0.0551	708.75
352.78 K, 24991 kPa, x2 = 0.0551	709.57
352.79 K, 6023 kPa, x2 = 0.2369	695.17
352.79 K, 7016 kPa, x2 = 0.2369	696.39
352.79 K, 8017 kPa, x2 = 0.2369	697.7
352.79 K, 9014 kPa, x2 = 0.2369	698.95
352.79 K, 10006 kPa, x2 = 0.2369	700.1
352.79 K, 11019 kPa, x2 = 0.2369	701.32
352.79 K, 12015 kPa, x2 = 0.2369	702.48
352.79 K, 13014 kPa, x2 = 0.2369	703.71
352.79 K, 14010 kPa, x2 = 0.2369	704.77
352.79 K, 15002 kPa, x2 = 0.2369	705.93
352.79 K, 16000 kPa, x2 = 0.2369	707.03
352.79 K, 17020 kPa, x2 = 0.2369	708.08
352.79 K, 18006 kPa, x2 = 0.2369	709.15
352.79 K, 19014 kPa, x2 = 0.2369	710.21
352.79 K, 19955 kPa, x2 = 0.2369	711.22
352.79 K, 21069 kPa, x2 = 0.2369	712.3
352.79 K, 22042 kPa, x2 = 0.2369	713.3
352.79 K, 23032 kPa, x2 = 0.2369	714.28
352.79 K, 24057 kPa, x2 = 0.2369	715.33
352.79 K, 24999 kPa, x2 = 0.2369	716.29
352.8 K, 8029 kPa, x2 = 0.4536	702.49
352.8 K, 9011 kPa, x2 = 0.4536	704.17
352.8 K, 10022 kPa, x2 = 0.4536	705.86
352.8 K, 11012 kPa, x2 = 0.4536	707.47
352.8 K, 12018 kPa, x2 = 0.4536	709.07
352.8 K, 13013 kPa, x2 = 0.4536	710.62
352.8 K, 14019 kPa, x2 = 0.4536	712.14
352.8 K, 15017 kPa, x2 = 0.4536	713.63
352.8 K, 16008 kPa, x2 = 0.4536	715.06
352.8 K, 17028 kPa, x2 = 0.4536	716.51
352.8 K, 18018 kPa, x2 = 0.4536	717.9
352.8 K, 19024 kPa, x2 = 0.4536	719.28
352.8 K, 20015 kPa, x2 = 0.4536	720.6
352.8 K, 21003 kPa, x2 = 0.4536	721.91
352.8 K, 22029 kPa, x2 = 0.4536	723.29
352.8 K, 23006 kPa, x2 = 0.4536	724.51
352.8 K, 24025 kPa, x2 = 0.4536	725.86
352.8 K, 25013 kPa, x2 = 0.4536	727.09
362.63 K, 15022 kPa, x2 = 0.8114	681.16
362.63 K, 16023 kPa, x2 = 0.8114	688.18
362.63 K, 17027 kPa, x2 = 0.8114	694.15
362.63 K, 18027 kPa, x2 = 0.8114	699.67
362.63 K, 19028 kPa, x2 = 0.8114	704.83
362.63 K, 20026 kPa, x2 = 0.8114	709.67
362.63 K, 21017 kPa, x2 = 0.8114	714.17
362.63 K, 22023 kPa, x2 = 0.8114	718.48
362.63 K, 23019 kPa, x2 = 0.8114	722.51
362.63 K, 24030 kPa, x2 = 0.8114	726.42
362.63 K, 25024 kPa, x2 = 0.8114	730.11
362.65 K, 5978 kPa, x2 = 0.2369	686.43
362.65 K, 7016 kPa, x2 = 0.2369	687.86
362.65 K, 8020 kPa, x2 = 0.2369	689.21
362.65 K, 9035 kPa, x2 = 0.2369	690.58
